Data set [1] deals with T1, SFRP-1 (Homo sapiens, UniProt Q8N474).
T1 sequence (Q8N474 32-314): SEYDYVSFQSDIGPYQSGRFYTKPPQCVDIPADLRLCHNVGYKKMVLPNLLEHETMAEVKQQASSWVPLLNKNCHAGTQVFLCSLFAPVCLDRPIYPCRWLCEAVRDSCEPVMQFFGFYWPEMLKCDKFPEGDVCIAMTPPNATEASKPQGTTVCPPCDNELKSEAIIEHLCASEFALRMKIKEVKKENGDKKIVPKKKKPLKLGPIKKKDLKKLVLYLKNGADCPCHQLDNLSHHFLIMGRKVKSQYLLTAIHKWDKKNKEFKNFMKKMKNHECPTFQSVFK
The data set is described as follows: Fluorescence polarization binding assay (competitive displacement of a probe compound from SFRP-1).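 Note: test compound competes with a fluorescent probe held by SFRP-1, seen as a drop in probe anisotropy after incubation in darkness, with anisotropy as function of rising compound dose.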 Conditions: fluorescence anisotropy, 45 nM SFRP-1, 20 nM probe. (In general: Fluorescence polarisation rises when a labelled molecule tumbles more slowly, as on binding a larger partner.)

The target in data set [2] is T1, SFRP-1. Put plainly: Cell-based assay for in vitro measurement of SFRP-1/SARP2 antagonist activity (U2OS cells co-transfected with 16x TCF-tk-Luciferase reporter, Wnt and hSFRP-1).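 For all read-outs here: U2OS cells co-transfected with a TCF-tk luciferase reporter, a Wnt vector, hSFRP-1 or empty vector and CMV-βgal, luciferase luminescence read in cell lysates alongside βgal activity.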 The conditions noted are these: for fold induction at 15 µM / fold induction at 10 µM: U2OS; for fold induction at 15 µM: single dose, luciferase reporter; for fold induction at 10 µM: read-out: Fold Induction with SFRP-1, U2OS cells, single dose 10 μM, luciferase reporter, fold induction over SFRP-1 control. A general note: In a reporter assay the amount or activity of a reporter protein is the signal.

Where [3] appears, read: read-out: Fold Induction with SFRP-1, Conc 15 μM, fold induction over SFRP-1 control, cells with SFRP-1.
Setting [4] is: read-out: Fold Induction without SFRP-1, Conc 15 μM, cells without SFRP-1 (specificity control).

The text below walks through data of patent publication US20060276464A1, “Diarylsulfone sulfonamides and use thereof” (Wyeth, priority 2005, published 2006).

“And” between values parts separate entries of the source, which are not always exact repeats. Equal values may be shown once. Read-outs that look alike come from different tables or passages of the source.

As usually defined, the IC50 is the concentration needed to halve the response being measured. The low end stands for greater potency, the high end for weaker potency. What is called melting point is the temperature, or range, at which the solid turns liquid. Broadly, the EC50 is the midpoint of the concentration-response curve. Low values mean an effect from little substance, high ones a need for much substance.

In turn, `CC(C)c1cc(C(C)C)c(S(=O)(=O)c2ccccc2)cc1S(=O)(=O)NCC1CCOCC1` [Example 611, 2,4-Diisopropyl-5-(phenylsulfonyl)-N-(tetrahydro-2H-pyran-4-ylmethyl)benzenesulfonamide] had a melting point of 148 to 150 °C. For the same compound, at SFRP-1 [1], the IC50 was 1.3 µM. At SFRP-1 [2] (setting [3]), the fold induction at 15 µM worked out at 2.6. The fold induction at 15 µM on SFRP-1 [2] (setting [4]) was found to be 1.1.
The like results for `CC(C)c1cc(C(C)C)c(S(=O)(=O)c2ccccc2)cc1S(=O)(=O)NCCC1CCOCC1` [Example 612, 2,4-Diisopropyl-5-(phenylsulfonyl)-N-[2-(tetrahydro-2H-pyran-4-yl)ethyl]benzenesulfonamide] were, in that order, 90 to 92 °C, 1.6 µM, 2 and 1.1.
Compound `CC(C)c1cc(C(C)C)c(S(=O)(=O)c2ccccc2)cc1S(=O)(=O)NC1CCCC1` [Example 613, N-Cyclopentyl-2,4-diisopropyl-5-(phenylsulfonyl)benzenesulfonamide] registered a melting point of 179 to 181 °C. In addition, the IC50 at SFRP-1 [1] is 2.5 µM and 3 µM. In addition, the fold induction at 15 µM on SFRP-1 [2] (setting [3]) was 1.3. Further, the fold induction at 15 µM on SFRP-1 [2] (setting [4]) amounted to 1.
`CC(C)c1cc(C(C)C)c(S(=O)(=O)c2ccccc2)cc1S(=O)(=O)NCCc1ccccn1` [Example 614, 2,4-Diisopropyl-5-(phenylsulfonyl)-N-(2-pyridin-2-ylethyl)benzenesulfonamide]: the melting point was 189 to 191 °C. Besides, the IC50 at SFRP-1 [1] was 1.3 µM. The fold induction at 15 µM at SFRP-1 [2] (setting [3]) was determined as 1.8. For the same compound, at SFRP-1 [2] (setting [4]), the fold induction at 15 µM worked out at 1.
In the case of `CC(C)c1cc(C(C)C)c(S(=O)(=O)c2ccccc2)cc1S(=O)(=O)NCCCn1ccnc1` [Example 615, N-[3-(1H-Imidazol-1-yl)propyl]-2,4-diisopropyl-5-(phenylsulfonyl)benzenesulfonamide], the melting point fell in the range of 203 to 205 °C. On SFRP-1 [1], this compound showed an IC50 of 1.2 µM. Further, the fold induction at 15 µM at SFRP-1 [2] (setting [3]) stood at 1.7. Further, the fold induction at 15 µM at SFRP-1 [2] (setting [4]) came to 1.
`CC(C)c1cc(C(C)C)c(S(=O)(=O)c2ccccc2)cc1S(=O)(=O)NCCc1cccnc1` [Example 616, 2,4-Diisopropyl-5-(phenylsulfonyl)-N-(2-pyridin-3-ylethyl)benzenesulfonamide] displayed a melting point of 163 to 165 °C. The compound also registered an IC50 at SFRP-1 [1] of 0.8 µM. In addition, the fold induction at 15 µM at SFRP-1 [2] (setting [3]) was determined as 2.7. The fold induction at 15 µM at SFRP-1 [2] (setting [4]) is 1.
For the compound `CC(C)c1cc(C(C)C)c(S(=O)(=O)c2ccccc2)cc1S(=O)(=O)NCCc1ccncc1` [Example 617, 2,4-Diisopropyl-5-(phenylsulfonyl)-N-(2-pyridin-4-ylethyl)benzenesulfonamide], the melting point lay in the range of 178 to 180 °C. In addition, the IC50 on SFRP-1 [1] worked out at 1 µM. On SFRP-1 [2] (setting [3]), the fold induction at 15 µM turned out to be 2. For the same compound, the fold induction at 15 µM at SFRP-1 [2] (setting [4]) is 1.2.
The like results for `CC(C)c1cc(C(C)C)c(S(=O)(=O)c2ccc(F)cc2)cc1S(=O)(=O)NC1CCOCC1` [Example 620, 5-[(4-Fluorophenyl)sulfonyl]-2,4-diisopropyl-N-(tetrahydro-2H-pyran-4-yl)benzenesulfonamide] were, in that order, 183 to 186 °C, 1 µM, 2.7 and 1.
The compound `CC(C)c1cc(C(C)C)c(S(=O)(=O)c2ccc(F)cc2)cc1S(=O)(=O)NCC1CCOCC1` [Example 629, 5-[(4-Fluorophenyl)sulfonyl]-2,4-diisopropyl-N-(tetrahydro-2H-pyran-4-ylmethyl)benzenesulfonamide] yielded a melting point of 200 to 202 °C. For the same compound, the IC50 at SFRP-1 [1] worked out at 3 µM. Also, the fold induction at 15 µM on SFRP-1 [2] (setting [3]) turned out to be 2.1. The fold induction at 15 µM at SFRP-1 [2] (setting [4]) is 1.
With `CC(C)c1cc(C(C)C)c(S(=O)(=O)c2ccc(F)cc2)cc1S(=O)(=O)NCCC1CCOCC1` [Example 630, 5-[(4-Fluorophenyl)sulfonyl]-2,4-diisopropyl-N-[2-(tetrahydro-2H-pyran-4-yl)ethyl]benzenesulfonamide], the melting point was 141 to 143 °C. The compound further gave an IC50 at SFRP-1 [1] of 4 µM. Also, the fold induction at 15 µM on SFRP-1 [2] (setting [3]) was found to be 2.2. In addition, at SFRP-1 [2] (setting [4]), the fold induction at 15 µM was 1.
Compound `CC(C)c1cc(C(C)C)c(S(=O)(=O)c2ccc(F)cc2)cc1S(=O)(=O)NCCc1ccccn1` [Example 631, 5-[(4-Fluorophenyl)sulfonyl]-2,4-diisopropyl-N-(2-pyridin-2-ylethyl)benzenesulfonamide] returned a melting point of 159 to 161 °C. This compound registered an IC50 at SFRP-1 [1] of 4 µM. In addition, the fold induction at 15 µM on SFRP-1 [2] (setting [3]) is 2.4. In addition, the fold induction at 15 µM on SFRP-1 [2] (setting [4]) is 1.
The matching figures for `CC(C)c1cc(C(C)C)c(S(=O)(=O)c2ccc(F)cc2)cc1S(=O)(=O)NCCc1cccnc1` [Example 632, 5-[(4-Fluorophenyl)sulfonyl]-2,4-diisopropyl-N-(2-pyridin-3-ylethyl)benzenesulfonamide]: 148 to 150 °C, 2.6 µM, 3 and 1.
On to `CC(C)c1ccc(S(=O)(=O)c2ccccc2)cc1S(=O)(=O)NC1CCN(C(=O)c2ccccc2)CC1` [Example 802, N-(1-Benzoylpiperidin-4-yl)-2-isopropyl-5-(phenylsulfonyl)benzenesulfonamide], for which the melting point was determined as 225 °C. Further, the IC50 at SFRP-1 [1] was 0.17 µM. Also, on SFRP-1 [2], the EC50 amounted to 0.301 µM and the fold induction at 10 µM was 2.6.
Compound `COc1ccccc1C(=O)N1CCC(NS(=O)(=O)c2cc(S(=O)(=O)c3ccccc3)ccc2C(C)C)CC1` [Example 803, 2-Isopropyl-N-[1-(2-methoxybenzoyl)piperidin-4-yl]-5-(phenylsulfonyl)benzenesulfonamide] had a melting point of 160 to 162 °C. Besides, the IC50 on SFRP-1 [1] was determined as 0.29 µM. For the same compound, at SFRP-1 [2], the fold induction at 10 µM was found to be 3.2.
In the case of `CC(C)c1ccc(S(=O)(=O)c2ccccc2)cc1S(=O)(=O)NC1CCN(C(=O)c2cccc(F)c2)CC1` [Example 804, N-[1-(3-Fluorobenzoyl)piperidin-4-yl]-2-isopropyl-5-(phenylsulfonyl)benzenesulfonamide], the melting point lay within 215 to 218 °C. Besides, on SFRP-1 [1], the IC50 was found to be 0.3 µM. Further, the fold induction at 10 µM at SFRP-1 [2] was 3.
As to `CC(C)c1ccc(S(=O)(=O)c2ccccc2)cc1S(=O)(=O)NC1CCN(C(=O)c2ccc(F)cc2)CC1` [Example 805, N-[1-(4-Fluorobenzoyl)piperidin-4-yl]-2-isopropyl-5-(phenylsulfonyl)benzenesulfonamide], the melting point fell in the range of 218 to 220 °C. At SFRP-1 [1], the IC50 is 0.4 µM. At SFRP-1 [2], the midpoint of the response, the EC50, lay at 0.512 µM and the fold induction at 10 µM is 3.
The matching figures for `CC(C)c1ccc(S(=O)(=O)c2ccccc2)cc1S(=O)(=O)NC1CCN(C(=O)c2ccccc2F)CC1` [Example 806, N-[1-(2-Fluorobenzoyl)piperidin-4-yl]-2-isopropyl-5-(phenylsulfonyl)benzenesulfonamide]: 210 to 212 °C, 0.23 µM, 0.238 µM and 2.8.
